Reference: patent US11304929B2, “Tosylacetate based compounds and derivatives thereof as PHGDH inhibitors” (priority 2017, dated 2022)
Like-named read-outs stand apart in the source and are kept apart here.

Columns and labels:
PHGDH = PHGDH (Homo sapiens (Human), UniProt O43175); assay: 3-Phosphoglycerate Dehydrogenase (PHGDH) Fluorescence Intensity Assay, run at two NAD/3-PG ratios: PHGDH_HIGH_NAD/3-PG (250 μM NAD/500 μM 3-PG) and PHGDH_500_NAD/3-PG (500 μM NAD/500 μM 3-PG); assay type: biochemical
MDA-MB-468 = assay: 13C3 Serine Assay MDA-MB-468 (13C3 serine levels by LC/MS/MS); assay type: cell-based
[1] = 250 μM NAD/500 μM 3-PG, read-out: IC50 (PHGDH_HIGH_NAD/3-PG)
[2] = Homo sapiens, MDA-MB-468 cells, 13C3 serine levels by LC/MS/MS, read-out: IC50 (13CSERINE)
[3] = 500 μM NAD/500 μM 3-PG, read-out: IC50 (PHGDH_500_NAD/3-PG)

Sequence of PHGDH (O43175 2-533 limits assumed): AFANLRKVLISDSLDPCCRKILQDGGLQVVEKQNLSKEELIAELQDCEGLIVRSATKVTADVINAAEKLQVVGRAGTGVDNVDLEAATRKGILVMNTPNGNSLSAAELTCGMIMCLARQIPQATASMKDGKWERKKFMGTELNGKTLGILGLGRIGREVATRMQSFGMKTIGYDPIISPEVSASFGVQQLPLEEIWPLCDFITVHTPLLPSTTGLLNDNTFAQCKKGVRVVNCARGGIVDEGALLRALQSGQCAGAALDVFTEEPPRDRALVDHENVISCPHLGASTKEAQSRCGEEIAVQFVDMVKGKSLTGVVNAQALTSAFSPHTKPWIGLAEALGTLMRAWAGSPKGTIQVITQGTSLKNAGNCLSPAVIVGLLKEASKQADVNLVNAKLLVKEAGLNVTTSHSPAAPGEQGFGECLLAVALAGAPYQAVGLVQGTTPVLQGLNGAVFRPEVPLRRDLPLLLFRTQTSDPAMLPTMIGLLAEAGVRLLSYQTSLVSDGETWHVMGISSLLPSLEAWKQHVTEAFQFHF

Structure (SMILES)	IC50 (PHGDH; [1]) [nM]	IC50 (MDA-MB-468; [2]) [nM]	IC50 (PHGDH; [3]) [nM]	other results
COC(=O)CS(=O)(=O)c1ccc([C@@H](C)NC(=O)c2cc3c(Cl)c(Cl)c(C)cc3n2C)cc1 [Example 01-001, methyl 2-{4-[(1R)-1-[(4,5-dichloro-1,6-dimethyl-1H-indol-2-yl)formamido]ethyl]benzenesulfonyl}acetate]	441	7	–	–
CCOC(=O)CS(=O)(=O)c1ccc([C@@H](CO)NC(=O)c2cc3c(Cl)c(Cl)c(C)cc3n2C)cc1 [Example 01-002, ethyl 2-{4-[(1S)-1-[(4,5-dichloro-1,6-dimethyl-1H-indol-2-yl)formamido]-2-hydroxyethyl]benzenesulfonyl}acetate]	169	–	258	IC50 (MDA-MB-468; Homo sapiens, MDA-MB-468, read-out: IC50 (13CSERINE)): 2.9 nM
COC(=O)CS(=O)(=O)c1ccc([C@@H](C)NC(=O)c2cc3c(Cl)cc(-c4cnn(C)c4)cc3n2C)cc1 [Example 01-003, methyl 2-{4-[(1R)-1-{[4-chloro-1-methyl-6-(1-methyl-1H-pyrazol-4-yl)-1H-indol-2-yl]formamido}ethyl]benzenesulfonyl}acetate]	905	109	–	–
CCOC(=O)CS(=O)(=O)c1ccc([C@@H](C)NC(=O)c2cc3c(Cl)cc(C)cc3n2C)cc1 [Example 01-004, ethyl 2-{4-[(1R)-1-[(4-chloro-1,6-dimethyl-1H-indol-2-yl)formamido]ethyl]benzenesulfonyl}acetate]	964	29.3	–	–
CCOC(=O)CS(=O)(=O)c1ccc([C@@H](CO)NC(=O)c2cc3c(Cl)cc(C)cc3n2C)cc1 [Example 01-005, ethyl 2-{4-[(1S)-1-[(4-chloro-1,6-dimethyl-1H-indol-2-yl)formamido]-2-hydroxyethyl]benzenesulfonyl}acetate]	223	3.3	–	–
Cc1cc(Cl)c2cc(C(=O)N[C@H](C)c3ccc(S(=O)(=O)CC(=O)OC(C)C)cc3)n(C)c2c1 [Example 01-018, propan-2-yl 2-{4-[(1R)-1-[(4-chloro-1,6-dimethyl-1H-indol-2-yl)formamido]ethyl]benzenesulfonyl}acetate]	–	66.3	–	–
COC(=O)CS(=O)(=O)c1ccc([C@@H](C)NC(=O)c2cc3c(Cl)cc(C)cc3n2C)nc1 [Example 01-029, methyl 2-({6-[(1R)-1-[(4-chloro-1,6-dimethyl-1H-indol-2-yl)formamido]ethyl]pyridin-3-yl}sulfonyl)acetate]	–	51.4	–	–
Cc1cc2c(cc(C(=O)N[C@H](CO)c3ccc([S@@+]([O-])CC(=O)OC(C)C)cc3)n2C)c(Cl)c1Cl [Example 13-002, propan-2-yl 2-[(S)-4-[(1S)-1-[(4,5-dichloro-1,6-dimethyl-1H-indol-2-yl)formamido]-2-hydroxyethyl]benzenesulfinyl]acetate]	819	–	1020	–
Cc1cc2c(cc(C(=O)N[C@H](CO)c3ccc([S@@+]([O-])CC(=O)OC4CCOCC4)cc3)n2C)c(Cl)c1Cl [Example 13-003, oxan-4-yl 2-[(S)-4-[(1S)-1-[(4,5-dichloro-1,6-dimethyl-1H-indol-2-yl)formamido]-2-hydroxyethyl]benzenesulfinyl]acetate]	–	–	211	–
Cc1cc2c(cc(C(=O)N[C@H](CO)c3ccc([S@@+]([O-])CC(=O)OC(C)C)cc3)n2C)c(F)c1F [Example 13-004, propan-2-yl 2-[(S)-4-[(1S)-1-[(4,5-difluoro-1,6-dimethyl-1H-indol-2-yl)formamido]-2-hydroxyethyl]benzenesulfinyl]acetate]	–	–	690	–
Cc1cc2c(cc(C(=O)N[C@H](CO)c3ccc([S@+]([O-])CC(=O)OC4CCOCC4)cc3)n2C)c(Cl)c1Cl [Example 13-005, oxan-4-yl 2-[(R)-4-[(1S)-1-[(4,5-dichloro-1,6-dimethyl-1H-indol-2-yl)formamido]-2-hydroxyethyl]benzenesulfinyl]acetate]	–	–	191	–
Cc1cc2c(cc(C(=O)N[C@H](CO)c3ccc([S@+]([O-])CC(=O)OC(C)C)cc3)n2C)c(F)c1F [Example 13-006, propan-2-yl 2-[(R)-4-[(1S)-1-[(4,5-difluoro-1,6-dimethyl-1H-indol-2-yl)formamido]-2-hydroxyethyl]benzenesulfinyl]acetate]	–	–	2080	–
Cc1cc(Cl)c2cc(C(=O)N[C@H](C)c3ccc([S+]([O-])CC(=O)OC(C)C)cc3)n(C)c2c1 (stereo partly drawn) [Example 13-007, propan-2-yl 2-{4-[(1R)-1-[(4-chloro-1,6-dimethyl-1H-indol-2-yl)formamido]ethyl]benzenesulfinyl}acetate]	2140	–	–	–
Cc1cc(Cl)c2cc(C(=O)N[C@H](CO)c3ccc([S+]([O-])CC(=O)OC(C)C)cc3)n(C)c2c1 (stereo partly drawn) [Example 13-008, propan-2-yl 2-{4-[(1S)-1-[(4-chloro-1,6-dimethyl-1H-indol-2-yl)formamido]-2-hydroxyethyl]benzenesulfinyl}acetate]	695	–	1200	–
Cc1cc2c(cc(C(=O)N[C@H](CO)c3ccc([S+]([O-])CC(=O)OC(C)C)cc3)n2C)c(Cl)c1Cl (stereo partly drawn) [Example 13-009, propan-2-yl 2-{4-[(1S)-1-[(4,5-dichloro-1,6-dimethyl-1H-indol-2-yl)formamido]-2-hydroxyethyl]benzenesulfinyl}acetate]	428	–	797	–
Cc1cc2c(cc(C(=O)N[C@H](CO)c3ccc([S+]([O-])CC(=O)OC(C)C)cc3)n2C)c(F)c1F (stereo partly drawn) [Example 13-010, propan-2-yl 2-{4-[(1S)-1-[(4,5-difluoro-1,6-dimethyl-1H-indol-2-yl)formamido]-2-hydroxyethyl]benzenesulfinyl}acetate]	–	–	1060	–
Cc1cc2c(cc(C(=O)N[C@H](C)c3ccc([S+]([O-])CC(=O)OC(C)C)cc3)n2C)c(Cl)c1Cl (stereo partly drawn) [Example 13-011, propan-2-yl 2-{4-[(1R)-1-[(4,5-dichloro-1,6-dimethyl-1H-indol-2-yl)formamido]ethyl]benzenesulfinyl}acetate]	–	–	1740	–
C[C@@H](NC(=O)c1cc(-c2ccc(F)cc2)nn1C)c1ccc(S(=O)(=O)CC(=O)NOCCN2CCOCC2)cc1 [Example 15-001, 3-(4-fluorophenyl)-1-methyl-N-[(1R)-1-[4-({[2-(morpholin-4-yl)ethoxy]carbamoyl}methanesulfonyl)phenyl]ethyl]-1H-pyrazole-5-carboxamide]	–	55400	–	–
C[C@@H](NC(=O)c1cc(-c2ccc(F)cc2)nn1C)c1ccc(S(=O)(=O)CC(=O)NOC2CCN(C)CC2)cc1 [Example 15-002, 3-(4-fluorophenyl)-1-methyl-N-[(1R)-1-[4-({[(1-methylpiperidin-4-yl)oxy]carbamoyl}methanesulfonyl)phenyl]ethyl]-1H-pyrazole-5-carboxamide]	–	85300	–	–
Cc1cc(Cl)c2cc(C(=O)N[C@H](C)c3ccc(S(=O)(=O)CC(=O)CCC(=O)O)cc3)n(C)c2c1 [Example 15-003, 5-{4-[(1R)-1-[(4-chloro-1,6-dimethyl-1H-indol-2-yl)formamido]ethyl]benzenesulfonyl}-4-oxopentanoic acid]	–	9640	–	–
CONC(=O)CS(=O)(=O)c1ccc([C@@H](C)NC(=O)c2cc(-c3ccc(F)cc3)nn2C)cc1 [Example 15-004, 3-(4-fluorophenyl)-N-[(1R)-1-{4-[(methoxycarbamoyl)methanesulfonyl]phenyl}ethyl]-1-methyl-1H-pyrazole-5-carboxamide]	–	6270	–	–
CCOC(=O)CS(=O)(=O)c1ccc([C@@H](C)NC(=O)c2cc(-n3ccc4ccccc43)nn2C)cc1 [Example 15-005, ethyl 2-{4-[(1R)-1-{[3-(1H-indol-1-yl)-1-methyl-1H-pyrazol-5-yl]formamido}ethyl]benzenesulfonyl}acetate]	–	309	–	–
CCOC(=O)CS(=O)(=O)c1ccc([C@@H](C)NC(=O)c2cc(-n3ncc4ccccc43)nn2C)cc1 [Example 15-006, ethyl 2-{4-[(1R)-1-{[3-(1H-indazol-1-yI)-1-methyl-1H-pyrazol-5-yl]formamido}ethyl]benzenesulfonyl}acetate]	–	–	–	IC50 (MDA-MB-468; MDA-MB-468 cells, 13C3 serine levels by LC/MS/MS, read-out: IC50 (13CSERINE)): 73.3 nM
Cc1cc(Cl)c2cc(C(=O)N[C@H](C)c3ccc(S(=O)(=O)C(C)(C)C(N)=O)cc3)n(C)c2c1 [Example 15-007, N-[(1R)-1-[4-(1-carbamoyl-1-methylethanesulfonyl)phenyl]ethyl]-4-chloro-1,6-dimethyl-1H-indole-2-carboxamide]	–	3220	–	–
Cc1cc(Cl)c2cc(C(=O)N[C@H](C)c3ccc(S(=O)(=O)CC(=O)CS(=O)(=O)c4ccc([C@@H](C)NC(=O)c5cc6c(Cl)cc(C)cc6n5C)cc4)cc3)n(C)c2c1 [Example 15-008, 4-chloro-N-[(1R)-1-[4-(3-{4-[(1R)-1-[(4-chloro-1,6-dimethyl-1H-indol-2-yl)formamido]ethyl]benzenesulfonyl}-2-oxopropanesulfonyl)phenyl]ethyl]-1,6-dimethyl-1H-indole-2-carboxamide]	–	11.9	–	–
Cc1cc(Cl)c2cc(C(=O)N[C@H](C)c3ccc(S(=O)(=O)CC(=O)N(C)C)cc3)n(C)c2c1 [Example 15-009, 4-chloro-N-[(1R)-1-{4-[(dimethylcarbamoyl)methanesulfonyl]phenyl}ethyl]-1,6-dimethyl-1H-indole-2-carboxamide]	–	3390	–	–
CCOC(=O)CS(=O)(=O)c1ccc([C@@H](C)NC(=O)c2cc(-c3ccccc3)n(C)n2)cc1 [Example 15-010, ethyl 2-{4-[(1R)-1-[(1-methyl-5-phenyl-1H-pyrazol-3-yl)formamido]ethyl]benzenesulfonyl}acetate]	–	1300	–	–
Cc1cc(Cl)c2cc(C(=O)N[C@H](C)c3ccc(S(=O)(=O)CC(=O)OCCOC(=O)CS(=O)(=O)c4ccc([C@@H](C)NC(=O)c5cc6c(Cl)cc(C)cc6n5C)cc4)cc3)n(C)c2c1 [Example 15-011, 2-[(2-{4-[(1R)-1-[(4-chloro-1,6-dimethyl-1H-indol-2-yl)formamido]ethyl]benzenesulfonyl}acetyl)oxy]ethyl 2-{4-[(1R)-1-[(4-chloro-1,6-dimethyl-1H-indol-2-yl)formamido]ethyl]benzenesulfonyl}acetate]	–	249	–	–
